Measured values reported in ChEMBL document CHEMBL3046917, “Antimicrobial evaluation of 4-methylsulfanyl benzylidene/3-hydroxy benzylidene hydrazides and QSAR studies” (2012).
≈ marks a conversion by molar mass, not a printed value.

Legend:
Format in all cases: functional
Aspergillus niger [1] = experiment: Ratio of MFC to MIC for Aspergillus niger MTCC 8189
Candida albicans [2] = experiment: Ratio of MFC to MIC for Candida albicans MTCC 227
Escherichia coli [3] = experiment: Ratio of MBC to MIC for Escherichia coli MTCC 1652
Bacillus subtilis [4] = experiment: Ratio of MBC to MIC for Bacillus subtilis MTCC 2063
Staphylococcus aureus [5] = experiment: Ratio of MBC to MIC for Staphylococcus aureus MTCC 2901
Aspergillus niger [6] = experiment: Fungicidal activity against Aspergillus niger MTCC 8189
Candida albicans [7] = experiment: Fungicidal activity against Candida albicans MTCC 227
Escherichia coli [8] = experiment: Bactericidal activity against Escherichia coli MTCC 1652
Bacillus subtilis [9] = experiment: Bactericidal activity against Bacillus subtilis MTCC 2063
Staphylococcus aureus [10] = experiment: Bactericidal activity against Staphylococcus aureus MTCC 2901
Candida albicans [11] = experiment: Fungistatic activity against Candida albicans MTCC 227 after 48 hr by tube dilution method
Aspergillus niger [12] = experiment: Fungistatic activity against Aspergillus niger MTCC 8189 after 7 days by tube dilution method
Escherichia coli [13] = experiment: Bacteriostatic activity against Escherichia coli MTCC 1652 after 24 hr by tube dilution method
Staphylococcus aureus [14] = experiment: Bacteriostatic activity against Staphylococcus aureus MTCC 2901 after 24 hr by tube dilution method
Bacillus subtilis [15] = experiment: Bacteriostatic activity against Bacillus subtilis MTCC 2063 after 24 hr by tube dilution method

| Compound | Ratio (Aspergillus niger [1]) | Ratio (Candida albicans [2]) | Ratio (Escherichia coli [3]) | Ratio (Bacillus subtilis [4]) | Ratio (Staphylococcus aureus [5]) | MFC (Aspergillus niger [6]) [mM] | MFC (Candida albicans [7]) [mM] | MBC (Escherichia coli [8]) [mM] | MBC (Bacillus subtilis [9]) [mM] | MBC (Staphylococcus aureus [10]) [mM] | -logMIC (Candida albicans [11]) | -logMIC (Aspergillus niger [12]) | -logMIC (Escherichia coli [13]) | -logMIC (Staphylococcus aureus [14]) | -logMIC (Bacillus subtilis [15]) |
| --- | --- | --- | --- | --- | --- | --- | --- | --- | --- | --- | --- | --- | --- | --- | --- |
| O=C(/C=C/c1ccccc1)N/N=C/c1cccc(O)c1 | 3 | 3 | 3 | 3 | 3 | 0.093 (≈ 24.8 µg/mL) | 0.093 (≈ 24.8 µg/mL) | 0.046 (≈ 12.2 µg/mL) | 0.046 (≈ 12.2 µg/mL) | 0.046 (≈ 12.2 µg/mL) | 1.93 | 1.93 | 1.32 | 1.7 | 1.93 |
| O=C(N/N=C/c1cccc(O)c1)c1cc([N+](=O)[O-])cc([N+](=O)[O-])c1 | 3 | 3 | 3 | 3 | 3 | 0.037 (≈ 12.2 µg/mL) | > 0.151 | > 0.151 | > 0.151 | > 0.151 | 1.42 | 2.02 | 1.42 | 1.12 | 1.42 |
| O=C(O)c1cn(C2CC2)c2cc(N3CCNCC3)c(F)cc2c1=O [CIPROFLOXACIN] | – | – | – | – | – | – | – | 0.019 (≈ 6.3 µg/mL) | 0.019 (≈ 6.3 µg/mL) | 0.019 (≈ 6.3 µg/mL) | – | – | 2.61 | 2.61 | 2.61 |
| CCCCCCCCCCCCCCCCCC(=O)N/N=C/c1ccc(SC)cc1 | 3 | 3 | 3 | 3 | 3 | 0.115 (≈ 49.8 µg/mL) | > 0.115 | 0.028 (≈ 12.1 µg/mL) | > 0.115 | > 0.115 | 0.7 | 0.7 | 1.65 | 0.94 | 0.64 |
| CCCCCCCCCCCCCC(=O)N/N=C/c1cccc(O)c1 | 3 | 3 | 3 | 3 | 3 | > 0.144 | > 0.144 | > 0.144 | 0.144 (≈ 49.9 µg/mL) | > 0.144 | 0.54 | 1.2 | 0.94 | 0.94 | 2.04 |
| CSc1ccc(/C=N/NC(=O)c2cc([N+](=O)[O-])cc([N+](=O)[O-])c2)cc1 | 3 | 3 | 3 | 3 | 3 | 0.069 (≈ 24.9 µg/mL) | > 0.138 | 0.008 (≈ 2.88 µg/mL) | 0.069 (≈ 24.9 µg/mL) | 0.069 (≈ 24.9 µg/mL) | 0.86 | 2.06 | 2.06 | 1.46 | 2.06 |
| CCCCCCCCCCCCCCCC(=O)N/N=C/c1ccc(SC)cc1 | 3 | 3 | 3 | 3 | 3 | > 0.122 | > 0.122 | 0.061 (≈ 24.7 µg/mL) | 0.061 (≈ 24.7 µg/mL) | > 0.122 | 0.61 | 0.61 | 1.81 | 1.21 | 2.11 |
| CSc1ccc(/C=N/NC(=O)c2ccc(C)cc2)cc1 | 3 | 3 | 3 | 3 | 3 | 0.088 (≈ 25 µg/mL) | 0.088 (≈ 25 µg/mL) | 0.088 (≈ 25 µg/mL) | 0.044 (≈ 12.5 µg/mL) | > 0.176 | 1.96 | 1.66 | 1.96 | 1.66 | 1.96 |
| CCCCCCCCCCCCCCCC(=O)N/N=C/c1cccc(O)c1 | 3 | 3 | 3 | 3 | 3 | > 0.133 | > 0.133 | > 0.133 | 0.133 (≈ 49.8 µg/mL) | > 0.133 | 0.57 | 1.2 | 1.13 | 0.99 | 1.78 |
| C/C=C/C=C/C(=O)N/N=C/c1ccc(SC)cc1 | 3 | 3 | 3 | 3 | 3 | 0.096 (≈ 25 µg/mL) | > 0.192 | > 0.192 | > 0.192 | 0.192 (≈ 50 µg/mL) | 1.32 | 1.32 | 1.32 | 1.02 | 0.72 |
| COc1ccc(C(=O)N/N=C/c2cccc(O)c2)cc1OC | 3 | 3 | 3 | 3 | 3 | 0.041 (≈ 12.3 µg/mL) | 0.083 (≈ 24.9 µg/mL) | > 0.166 | > 0.166 | 0.083 (≈ 24.9 µg/mL) | 1.98 | 1.98 | 1.38 | 1.98 | 1.38 |
| CSc1ccc(/C=N/NC(=O)/C=C/c2ccccc2)cc1 | 3 | 3 | 3 | 3 | 3 | > 0.168 | 0.084 (≈ 24.9 µg/mL) | 0.168 (≈ 49.8 µg/mL) | > 0.168 | > 0.168 | 1.37 | 1.37 | 1.68 | 1.68 | 1.68 |
| C/C=C/C=C/C(=O)N/N=C/c1cccc(O)c1 | 3 | 3 | 3 | 3 | 3 | 0.217 (≈ 50 µg/mL) | 0.217 (≈ 50 µg/mL) | > 0.217 | 0.217 (≈ 50 µg/mL) | > 0.217 | 1.41 | 1.27 | 1.27 | 0.96 | 1.27 |
| CCCCCCCCCCCCCC(=O)N/N=C/c1ccc(SC)cc1 | 3 | 3 | 3 | 3 | 3 | > 0.132 | > 0.132 | > 0.132 | 0.033 (≈ 12.4 µg/mL) | > 0.132 | 0.58 | 1.7 | 1.48 | 0.58 | 2.08 |
| CCCCCCCCCCCCCCCCCC(=O)N/N=C/c1cccc(O)c1 | 3 | 3 | 3 | 3 | 3 | > 0.124 | > 0.124 | > 0.124 | 0.124 (≈ 49.9 µg/mL) | > 0.124 | 0.6 | 1.51 | 1.3 | 1.1 | 1.51 |
| COc1ccc(C(=O)N/N=C/c2ccc(SC)cc2)cc1OC | 3 | 3 | 3 | 3 | 3 | > 0.151 | > 0.151 | > 0.151 | > 0.151 | 0.037 (≈ 12.2 µg/mL) | 1.42 | 1.59 | 1.7 | 1.72 | 1.42 |
| CCCCCCCCCCCC(=O)N/N=C/c1ccc(SC)cc1 | 3 | 3 | 3 | 3 | 3 | 0.071 (≈ 24.7 µg/mL) | > 0.142 | > 0.142 | > 0.142 | > 0.142 | 1.66 | 1.25 | 1.3 | 1.3 | 1.45 |
| OC(Cn1cncn1)(Cn1cncn1)c1ccc(F)cc1F [FLUCONAZOLE] | – | – | – | – | – | 0.04 (≈ 12.3 µg/mL) | 0.04 (≈ 12.3 µg/mL) | – | – | – | 2.64 | 2.64 | – | – | – |
| CSc1ccc(/C=N/NC(=O)c2cccc(C)c2)cc1 | 3 | 3 | 3 | 3 | 3 | 0.088 (≈ 25 µg/mL) | 0.176 (≈ 50.1 µg/mL) | 0.176 (≈ 50.1 µg/mL) | > 0.176 | > 0.176 | 1.67 | 1.7 | 1.66 | 1.55 | 1.06 |
| CCCCCCCCCCCC(=O)N/N=C/c1cccc(O)c1 | 3 | 3 | 3 | 3 | 3 | 0.078 (≈ 24.8 µg/mL) | 0.157 (≈ 50 µg/mL) | 0.157 (≈ 50 µg/mL) | 0.157 (≈ 50 µg/mL) | > 0.157 | 1.1 | 1.71 | 0.98 | 0.98 | 0.8 |
